Measured values reported in ChEMBL document CHEMBL4118055, “Chemoenzymatic Synthesis and α-Glucosidase Inhibitory Activity of Dimeric Neolignans Inspired by Magnolol” (J Nat Prod, 2017).

Assays:
[1] = Inhibition of yeast alpha-glucosidase using p-nitrophenyl-alpha-glucopyranoside as substrate measured after 30 mins; design: species or system Saccharomyces cerevisiae
[2] = system: Saccharomyces cerevisiae; test: Inhibition of yeast alpha-glucosidase at 1.5 uM using p-nitrophenyl-alpha-glucopyranoside as substrate measured after 30 mins relative to control
[3] = Competitive-inhibition of yeast alpha-glucosidase using varying levels of p-nitrophenyl-alpha-glucopyranoside as substrate incubated for 20 mins measured at 1 min interval by Lineweaver-burk plot analysis; design: species or system Saccharomyces cerevisiae

| SMILES | IC50 [1] [µM] | inhibition [2] [%] | Ki [3] [µM] |
| --- | --- | --- | --- |
| OCCc1cc(O)c(O)c(-c2cc(CCO)cc(O)c2O)c1 | 4.1 | 18.2 | – |
| OCCc1ccc(O)c(-c2cc(CCO)ccc2O)c1 | 0.86 | 76.9 | – |
| CC(=O)OCCc1ccc(O)c(-c2cc(CCOC(C)=O)ccc2O)c1 | 0.15 | 98.9 | 0.86 |
| COc1cc(CCOC(C)=O)cc(-c2cc(CCOC(C)=O)cc(OC)c2O)c1O | 1.1 | 64.5 | – |
| CC(=O)OCCc1cc(O)c(O)c(-c2cc(CCOC(C)=O)cc(O)c2O)c1 | 2.9 | 31.4 | – |
| C=CCc1ccc(O)c(-c2ccc(O)c(CC=C)c2)c1 [HONOKIOL] | 23 | 3.9 | – |
| COc1cc(CCO)cc(-c2cc(CCO)cc(O)c2O)c1O | > 100 | – | – |
| C=CCc1ccc(O)c(-c2cc(CC=C)ccc2O)c1 [MAGNOLOL] | 2 | 29.8 | – |
| C[C@H]1O[C@H](O[C@H]2[C@H](O)[C@@H](O)[C@@H](O[C@H]3[C@H](O)[C@@H](O)C(O)O[C@@H]3CO)O[C@@H]2CO)[C@H](O)[C@@H](O)[C@@H]1N[C@H]1C=C(CO)[C@@H](O)[C@H](O)[C@H]1O (stereo partly specified) [ACARBOSE] | 270 | 0.7 | – |
| O=c1c(O)c(-c2ccc(O)c(O)c2)oc2cc(O)cc(O)c12 [QUERCETIN] | 14.2 | 5.3 | – |
| COc1cc(CCOC(C)=O)cc(-c2cc(CCOC(C)=O)cc(O)c2O)c1O | 3.3 | 21.3 | – |
| C=CCc1cc(O)c(O)c(-c2cc(CC=C)cc(O)c2O)c1 | 2.1 | 36.7 | – |
| COc1cc(CCO)cc(-c2cc(CCO)cc(OC)c2O)c1O | > 100 | – | – |
| C=CCc1cc(O)c(O)c(-c2cc(CC=C)cc(OC)c2O)c1 | 0.5 | 98 | – |
| C=CCc1cc(OC)c(O)c(-c2cc(CC=C)cc(OC)c2O)c1 | 2 | 46.7 | – |
| C=CCc1ccc(O)c(-c2cc(CC=C)cc(O)c2O)c1 | 0.49 | 97.6 | – |
